Assay results reported in PubChem BioAssay (NCI).
Where “and” joins values, the source holds several entries; their conditions need not be identical. Equal entries are not always repeated.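 Five compound concentrations were applied to cells in 96-well plates for 48 hours; endpoints were derived by simple linear interpolation of the resulting dose-response curve. The concentration for 50% growth inhibition is given as GI50. TGI: total growth inhibition.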

What was measured:
Assay in all cases: NCI tumour cell line growth inhibition, 48 h; in the data active = GI50 below about 0.43 µM; inactive = the rest
NCI-H23 lung = system: NCI-H23 lung
HCT-15 colon = system: HCT-15 colon
SNB-19 CNS = system: SNB-19 CNS
MOLT-4 leukemia = system: MOLT-4 leukemia
MDA-N = system: MDA-N
U251 CNS = system: U251 CNS
K-562 leukemia = system: K-562 leukemia
NCI-H460 lung = system: NCI-H460 lung
RXF 393 renal = system: RXF 393 renal
NCI-H226 lung = system: NCI-H226 lung
OVCAR-3 ovarian = system: OVCAR-3 ovarian
BT-549 breast = system: BT-549 breast
MDA-MB-435 = system: MDA-MB-435
MALME-3M melanoma = system: MALME-3M melanoma
PC-3 prostate = system: PC-3 prostate
SK-MEL-5 melanoma = system: SK-MEL-5 melanoma
HT29 colon = system: HT29 colon
HL-60(TB) leukemia = system: HL-60(TB) leukemia
HCT-116 colon = system: HCT-116 colon
OVCAR-5 ovarian = system: OVCAR-5 ovarian
MCF7 breast = system: MCF7 breast
SR leukemia = system: SR leukemia
HS 578T breast = system: HS 578T breast
SNB-75 CNS = system: SNB-75 CNS
RPMI-8226 leukemia = system: RPMI-8226 leukemia
HCC-2998 colon = system: HCC-2998 colon
SN12C renal = system: SN12C renal
HOP-62 NSCLC = system: HOP-62 NSCLC
UACC-62 melanoma = system: UACC-62 melanoma
COLO 205 colon = system: COLO 205 colon
SK-MEL-2 melanoma = system: SK-MEL-2 melanoma
OVCAR-8 ovarian = system: OVCAR-8 ovarian
KM12 colon = system: KM12 colon
IGROV1 ovarian = system: IGROV1 ovarian
CCRF-CEM leukemia = system: CCRF-CEM leukemia
SF-295 CNS = system: SF-295 CNS
DU-145 prostate = system: DU-145 prostate
UO-31 renal = system: UO-31 renal
NCI/ADR-RES ovarian = system: NCI/ADR-RES ovarian
HOP-92 NSCLC = system: HOP-92 NSCLC
SK-MEL-28 melanoma = system: SK-MEL-28 melanoma
M14 melanoma = system: M14 melanoma
SK-OV-3 ovarian = system: SK-OV-3 ovarian
A498 renal = system: A498 renal
MDA-MB-231 breast = system: MDA-MB-231 breast
NCI-H522 lung = system: NCI-H522 lung
T-47D breast = system: T-47D breast
CAKI-1 renal = system: CAKI-1 renal
SW-620 colon = system: SW-620 colon
SF-539 CNS = system: SF-539 CNS
TK-10 renal = system: TK-10 renal
786-0 renal = system: 786-0 renal
EKVX NSCLC = system: EKVX NSCLC
A549 NSCLC = system: A549 NSCLC
UACC-257 melanoma = system: UACC-257 melanoma
SF-268 CNS = system: SF-268 CNS
ACHN renal = system: ACHN renal
LOX IMVI melanoma = system: LOX IMVI melanoma
OVCAR-4 ovarian = system: OVCAR-4 ovarian

COC(=O)C(Cc1ccccc1)NC(=O)C(CNC(=O)OCc1ccccc1)C(=O)OCc1ccccc1 (stereo not given)
> 100 µM and 36.5 µM: TGI (NCI-H460 lung)
> 100 µM and 64.6 µM: TGI (MDA-MB-231 breast)
> 100 µM and 41.7 µM: TGI (SK-MEL-28 melanoma)
> 100 µM and 85.8 µM: TGI (UACC-62 melanoma)
> 100 µM and 80.2 µM: TGI (SF-295 CNS)
inactive: GI50 (MOLT-4 leukemia) > 100 µM and 10.4 µM | GI50 (NCI-H460 lung) 94.1 µM and 13.5 µM | GI50 (MDA-MB-435) > 100 µM and 44.5 µM | GI50 (MALME-3M melanoma) > 100 µM and 44.4 µM | GI50 (SK-MEL-5 melanoma) > 100 µM and 14.5 µM | GI50 (HL-60(TB) leukemia) > 100 µM and 21.6 µM | GI50 (HS 578T breast) 59 µM | GI50 (HOP-62 NSCLC) 18 µM and 94.1 µM | GI50 (UACC-62 melanoma) 52.2 µM and 22.1 µM | GI50 (CCRF-CEM leukemia) > 100 µM and 38.5 µM | GI50 (SF-295 CNS) > 100 µM and 28.6 µM | GI50 (HOP-92 NSCLC) > 100 µM and 31.9 µM | GI50 (SK-MEL-28 melanoma) > 100 µM and 20.8 µM | GI50 (M14 melanoma) > 100 µM and 10.2 µM
34.1 µM: TGI (RXF 393 renal)
> 100 µM and 31.4 µM: TGI (SK-MEL-5 melanoma)
> 100 µM: TGI (NCI-H23 lung) | TGI (HCT-15 colon) | TGI (SNB-19 CNS) | TGI (MDA-N) | TGI (U251 CNS) | TGI (K-562 leukemia) | TGI (NCI-H226 lung) | TGI (OVCAR-3 ovarian) | TGI (BT-549 breast) | TGI (MDA-MB-435) | TGI (MALME-3M melanoma) | TGI (PC-3 prostate) | TGI (HT29 colon) | TGI (HL-60(TB) leukemia) | TGI (HCT-116 colon) | TGI (OVCAR-5 ovarian) | TGI (SR leukemia) | TGI (HS 578T breast) | TGI (SNB-75 CNS) | TGI (RPMI-8226 leukemia) | TGI (HCC-2998 colon) | TGI (SN12C renal) | TGI (COLO 205 colon) | TGI (SK-MEL-2 melanoma) | TGI (OVCAR-8 ovarian) | TGI (KM12 colon) | TGI (IGROV1 ovarian) | TGI (CCRF-CEM leukemia) | TGI (DU-145 prostate) | TGI (UO-31 renal) | TGI (NCI/ADR-RES ovarian) | TGI (HOP-92 NSCLC) | TGI (SK-OV-3 ovarian) | TGI (A498 renal) | TGI (NCI-H522 lung) | TGI (T-47D breast) | TGI (CAKI-1 renal)
39.9 µM and > 100 µM: TGI (HOP-62 NSCLC)
> 100 µM and 79.8 µM: TGI (MCF7 breast)
> 100 µM and 26.8 µM: TGI (M14 melanoma)
> 100 µM and 30.3 µM: TGI (MOLT-4 leukemia)

COc1ccc(N(CC(=O)O)N=O)cc1
> 100 µM: TGI (NCI-H23 lung) | TGI (HCT-15 colon) | TGI (SNB-19 CNS) | TGI (MOLT-4 leukemia) | TGI (MDA-N) | TGI (U251 CNS) | TGI (K-562 leukemia) | TGI (NCI-H460 lung) | TGI (RXF 393 renal) | TGI (NCI-H226 lung) | TGI (SW-620 colon) | TGI (OVCAR-3 ovarian) | TGI (BT-549 breast) | TGI (MDA-MB-435) | TGI (MALME-3M melanoma) | TGI (PC-3 prostate) | TGI (SK-MEL-5 melanoma) | TGI (HT29 colon) | TGI (HL-60(TB) leukemia) | TGI (HCT-116 colon) | TGI (OVCAR-5 ovarian) | TGI (MCF7 breast) | TGI (SF-539 CNS) | TGI (SR leukemia) | TGI (TK-10 renal) | TGI (HS 578T breast) | TGI (RPMI-8226 leukemia) | TGI (786-0 renal) | TGI (SN12C renal) | TGI (HOP-62 NSCLC) | TGI (UACC-62 melanoma) | TGI (COLO 205 colon) | TGI (EKVX NSCLC) | TGI (SK-MEL-2 melanoma) | TGI (A549 NSCLC) | TGI (OVCAR-8 ovarian) | TGI (KM12 colon) | TGI (IGROV1 ovarian) | TGI (CCRF-CEM leukemia) | TGI (SF-295 CNS) | TGI (DU-145 prostate) | TGI (UO-31 renal) | TGI (NCI/ADR-RES ovarian) | TGI (HOP-92 NSCLC) | TGI (SK-MEL-28 melanoma) | TGI (UACC-257 melanoma) | TGI (SF-268 CNS) | TGI (ACHN renal) | TGI (M14 melanoma) | TGI (LOX IMVI melanoma) | TGI (SK-OV-3 ovarian) | TGI (OVCAR-4 ovarian) | TGI (A498 renal) | TGI (MDA-MB-231 breast) | TGI (NCI-H522 lung) | TGI (T-47D breast) | TGI (CAKI-1 renal)

CCCCCCCCCCCC1=C(O)C(=O)C(CC2=C(O)C(=O)C(CCCCCCCCCCC)=C(O)C2=O)=C(O)C1=O
> 100 µM: TGI (NCI-H23 lung) | TGI (HCT-15 colon) | TGI (MOLT-4 leukemia) | TGI (MDA-N) | TGI (U251 CNS) | TGI (K-562 leukemia) | TGI (NCI-H460 lung) | TGI (NCI-H226 lung) | TGI (SW-620 colon) | TGI (BT-549 breast) | TGI (MDA-MB-435) | TGI (MALME-3M melanoma) | TGI (PC-3 prostate) | TGI (SK-MEL-5 melanoma) | TGI (HT29 colon) | TGI (HCT-116 colon) | TGI (OVCAR-5 ovarian) | TGI (MCF7 breast) | TGI (SF-539 CNS) | TGI (TK-10 renal) | TGI (HS 578T breast) | TGI (786-0 renal) | TGI (HCC-2998 colon) | TGI (SN12C renal) | TGI (UACC-62 melanoma) | TGI (COLO 205 colon) | TGI (EKVX NSCLC) | TGI (SK-MEL-2 melanoma) | TGI (A549 NSCLC) | TGI (OVCAR-8 ovarian) | TGI (KM12 colon) | TGI (IGROV1 ovarian) | TGI (SF-295 CNS) | TGI (DU-145 prostate) | TGI (UO-31 renal) | TGI (NCI/ADR-RES ovarian) | TGI (SK-MEL-28 melanoma) | TGI (UACC-257 melanoma) | TGI (SF-268 CNS) | TGI (ACHN renal) | TGI (M14 melanoma) | TGI (LOX IMVI melanoma) | TGI (SK-OV-3 ovarian) | TGI (OVCAR-4 ovarian) | TGI (MDA-MB-231 breast) | TGI (NCI-H522 lung) | TGI (T-47D breast) | TGI (CAKI-1 renal)
98.2 µM: TGI (A498 renal)
37.5 µM: TGI (SNB-75 CNS)
73.3 µM: TGI (SNB-19 CNS)
42.4 µM: TGI (SR leukemia)
25.2 µM: TGI (RXF 393 renal)
55.2 µM: TGI (HOP-92 NSCLC)
64.4 µM: TGI (CCRF-CEM leukemia)

O=C(/C=C/c1ccccc1)c1cc(CN2CCOCC2)c(O)c(CN2CCOCC2)c1
98.5 µM: TGI (EKVX NSCLC)
32.6 µM: TGI (SF-539 CNS)
38.9 µM: TGI (SNB-75 CNS)
27.4 µM: TGI (HL-60(TB) leukemia)
> 100 µM: TGI (SNB-19 CNS) | TGI (HT29 colon) | TGI (HS 578T breast) | TGI (OVCAR-8 ovarian) | TGI (IGROV1 ovarian) | TGI (NCI/ADR-RES ovarian) | TGI (NCI-H522 lung)
29.4 µM: TGI (OVCAR-3 ovarian) | TGI (SK-MEL-28 melanoma)
16.3 µM: TGI (U251 CNS)
19.5 µM: TGI (LOX IMVI melanoma)
46.6 µM: TGI (SF-268 CNS)
75.6 µM: TGI (MOLT-4 leukemia)
32.7 µM: TGI (MDA-MB-231 breast)
39 µM: TGI (MDA-N)
31.3 µM: TGI (HCT-116 colon) | TGI (UO-31 renal)
39.5 µM: TGI (UACC-62 melanoma)
39.3 µM: TGI (HOP-62 NSCLC)
4.36 µM: TGI (CAKI-1 renal)
36.2 µM: TGI (K-562 leukemia) | TGI (OVCAR-5 ovarian)
19.4 µM: TGI (NCI-H460 lung)
61.8 µM: TGI (SK-MEL-2 melanoma)
29.8 µM: TGI (DU-145 prostate)
8.26 µM: TGI (ACHN renal)
85.3 µM: TGI (BT-549 breast)
24.2 µM: TGI (SR leukemia)
34.8 µM: TGI (SF-295 CNS)
23.6 µM: TGI (COLO 205 colon)
38.4 µM: TGI (PC-3 prostate)
29.7 µM: TGI (HCT-15 colon)
32.4 µM: TGI (MCF7 breast)
32.3 µM: TGI (MDA-MB-435)
48 µM: TGI (T-47D breast)
29 µM: TGI (786-0 renal)
28.9 µM: TGI (SW-620 colon)
43.2 µM: TGI (M14 melanoma)
28.2 µM: TGI (A498 renal)
31.1 µM: TGI (UACC-257 melanoma)
64.9 µM: TGI (NCI-H226 lung)
33.1 µM: TGI (KM12 colon)
60 µM: TGI (NCI-H23 lung)
25.3 µM: TGI (SN12C renal)
21.4 µM: TGI (RPMI-8226 leukemia)
33.7 µM: TGI (HCC-2998 colon)
33.2 µM: TGI (A549 NSCLC)
26.9 µM: TGI (HOP-92 NSCLC)
16.7 µM: TGI (CCRF-CEM leukemia)
26 µM: TGI (SK-MEL-5 melanoma)
55.6 µM: TGI (TK-10 renal)
35.8 µM: TGI (RXF 393 renal)
